Measurements as given in ChEMBL document CHEMBL1127172, “Novel pseudosymmetric inhibitors of HIV-1 protease” (Bioorg Med Chem Lett, 1993).

Experiments:
[1] = molecular target: Human immunodeficiency virus type 1 protease (Human immunodeficiency virus 1, UniProt Q72874); experiment: In vitro inhibition of HIV-1 protease at pH 6 using 164 uM peptide substrate
[2] = system: Human immunodeficiency virus 1; experiment: Antiviral activity against HIV-1 LAV virus infected MT-2 cells with reference to AZT (ED90=0.3 uM); type: functional, MT2
[3] = system: MT2; experiment: The compound was tested for its antiviral activity against HIV-1LAV virus infected MT-2 cells; type: functional, Homo sapiens
[4] = molecular target: Human immunodeficiency virus type 1 protease (Human immunodeficiency virus 1) (UniProt Q72874); experiment: The compound was tested in vitro for the % inhibition of HIV-1 protease at 100 uM concentration
[5] = molecular target: T1, Cathepsin E (Homo sapiens, UniProt P14091); experiment: The compound was tested for its inhibitory activity against human cathepsin E
T1 sequence (P14091 whole entry): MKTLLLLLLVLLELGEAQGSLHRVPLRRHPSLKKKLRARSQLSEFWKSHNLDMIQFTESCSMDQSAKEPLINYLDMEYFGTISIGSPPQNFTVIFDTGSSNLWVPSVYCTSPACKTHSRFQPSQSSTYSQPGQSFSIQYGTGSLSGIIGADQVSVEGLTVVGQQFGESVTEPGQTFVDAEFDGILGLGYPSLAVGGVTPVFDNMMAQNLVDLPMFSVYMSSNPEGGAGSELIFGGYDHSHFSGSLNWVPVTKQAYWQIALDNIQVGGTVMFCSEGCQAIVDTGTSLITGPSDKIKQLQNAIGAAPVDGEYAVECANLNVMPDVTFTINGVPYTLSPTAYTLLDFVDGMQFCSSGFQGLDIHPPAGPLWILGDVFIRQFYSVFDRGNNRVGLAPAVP

[6] = molecular target: Cathepsin D (Homo sapiens, UniProt P07339); experiment: The compound was tested for its inhibitory activity against human cathepsin D
[7] = molecular target: T2, Gastricsin (Homo sapiens, UniProt P20142); experiment: The compound was tested for its inhibitory activity against human gastricsin
T2 sequence (P20142 whole entry): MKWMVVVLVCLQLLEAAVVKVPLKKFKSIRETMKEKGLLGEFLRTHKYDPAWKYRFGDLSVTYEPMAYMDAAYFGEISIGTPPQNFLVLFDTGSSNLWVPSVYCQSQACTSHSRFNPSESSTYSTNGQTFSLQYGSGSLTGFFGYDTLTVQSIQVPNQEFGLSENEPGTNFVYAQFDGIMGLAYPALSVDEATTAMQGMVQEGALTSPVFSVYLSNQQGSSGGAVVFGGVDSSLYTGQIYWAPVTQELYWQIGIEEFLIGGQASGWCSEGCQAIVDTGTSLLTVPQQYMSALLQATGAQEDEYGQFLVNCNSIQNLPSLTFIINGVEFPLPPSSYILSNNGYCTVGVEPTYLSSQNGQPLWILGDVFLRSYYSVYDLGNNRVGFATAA

[8] = molecular target: T3, Renin (Homo sapiens, UniProt P00797); experiment: The compound was tested for its inhibitory activity against human renin
T3 sequence (P00797 whole entry): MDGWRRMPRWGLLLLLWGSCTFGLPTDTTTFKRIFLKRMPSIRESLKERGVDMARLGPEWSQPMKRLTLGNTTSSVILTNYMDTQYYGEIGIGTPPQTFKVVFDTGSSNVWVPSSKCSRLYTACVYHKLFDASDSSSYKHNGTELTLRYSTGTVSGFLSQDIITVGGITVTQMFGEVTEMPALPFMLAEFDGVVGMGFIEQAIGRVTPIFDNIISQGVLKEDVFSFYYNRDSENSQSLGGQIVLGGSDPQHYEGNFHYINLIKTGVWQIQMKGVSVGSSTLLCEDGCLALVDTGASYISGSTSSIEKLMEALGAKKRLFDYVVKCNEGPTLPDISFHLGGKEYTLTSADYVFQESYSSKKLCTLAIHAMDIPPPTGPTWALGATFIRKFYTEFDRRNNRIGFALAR

Sequence of Cathepsin D (P07339 65-162 limits assumed): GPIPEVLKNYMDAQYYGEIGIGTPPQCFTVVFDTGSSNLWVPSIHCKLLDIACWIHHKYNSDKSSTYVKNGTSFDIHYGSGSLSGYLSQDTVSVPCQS
Sequence of Cathepsin D (P07339 169-412 limits assumed): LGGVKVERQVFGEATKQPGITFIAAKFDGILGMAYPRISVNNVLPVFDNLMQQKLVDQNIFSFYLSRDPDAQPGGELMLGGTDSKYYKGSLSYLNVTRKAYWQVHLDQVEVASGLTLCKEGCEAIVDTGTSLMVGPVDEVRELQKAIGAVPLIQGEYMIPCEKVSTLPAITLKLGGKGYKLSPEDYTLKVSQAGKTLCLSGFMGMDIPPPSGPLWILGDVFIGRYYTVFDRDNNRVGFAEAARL

Row | Compound | IC50 [1] [nM] | ED90 [2] [nM] | further results
1 | CC(C)[C@H](NC(=O)N1CCOCC1)C(=O)N[C@@H](Cc1ccccc1)[C@@H](O)CN(Cc1ccccc1)NC(=O)[C@H](NC(=O)N1CCOCC1)C(C)C | 2000 |  | 
2 | CC(C)[C@H](NC(=O)OCc1ccccc1)C(=O)N[C@@H](Cc1ccccc1)[C@@H](O)CN(Cc1ccc(C#N)cc1)NC(=O)[C@@H](NC(=O)OCc1ccccc1)C(C)C | 24 | 100 | 
3 | CC(=O)N[C@H](C(=O)N[C@@H](Cc1ccccc1)[C@@H](O)CN(Cc1ccccc1)NC(=O)[C@H](NC(C)=O)C(C)C)C(C)C | 30 | 10000 | 
4 | Cc1cn([C@H]2C[C@H](N=[N+]=[N-])[C@@H](CO)O2)c(=O)[nH]c1=O [ZIDOVUDINE] |  |  | ED90 [3]: 300 nM
5 | CC(=O)N[C@H](C(=O)N[C@@H](Cc1ccccc1)[C@@H](O)CN(Cc1ccc(F)cc1)NC(=O)[C@@H](NC(C)=O)C(C)C)C(C)C | 28 | 10000 | 
6 | CC(=O)N[C@H](C(=O)N[C@@H](Cc1ccccc1)[C@@H](O)CN(Cc1ccc(C#N)cc1)NC(=O)[C@@H](NC(C)=O)C(C)C)C(C)C | 50 | >10000 | 
7 | CC(C)[C@H](NC(=O)OCc1ccccc1)C(=O)N[C@@H](Cc1ccccc1)[C@@H](O)CN(CC1CCCCC1)NC(=O)[C@@H](NC(=O)OCc1ccccc1)C(C)C | 95 | 1000 | 
8 | CC(C)CN(C[C@H](O)[C@H](Cc1ccccc1)NC(=O)[C@@H](NC(=O)OCc1ccccc1)C(C)C)NC(=O)[C@@H](NC(=O)OCc1ccccc1)C(C)C | 10 | >1000 | 
9 | CC(C)[C@H](NC(=O)c1ccc2ccccc2n1)C(=O)N[C@@H](Cc1ccccc1)[C@@H](O)CN(Cc1ccccc1)NC(=O)[C@H](NC(=O)c1ccc2ccccc2n1)C(C)C | 65 |  | 
10 | CC(=O)N[C@H](C(=O)N[C@@H](Cc1ccccc1)[C@@H](O)CN(CC(C)C)NC(=O)[C@@H](NC(C)=O)C(C)C)C(C)C | 45 | >1000 | 
11 | CC(C)[C@H](NC(=O)OCc1ccccc1)C(=O)N[C@@H](Cc1ccccc1)[C@@H](O)CN(Cc1ccccc1)NC(=O)[C@H](NC(=O)OCc1ccccc1)C(C)C | 33 | 100 | 
12 | CC(C)[C@H](NC(=O)OCc1ccccc1)C(=O)N[C@@H](Cc1ccccc1)[C@@H](O)CN(Cc1ccc(F)cc1)NC(=O)[C@@H](NC(=O)OCc1ccccc1)C(C)C | 22 | 1000 | 
13 | CC(C)[C@H](N)C(=O)N[C@@H](Cc1ccccc1)[C@@H](O)CN(Cc1ccccc1)NC(=O)[C@H](N)C(C)C | > 100000 |  | inhibition [4]: 32%
14 | CC(C)[C@H](NC(=O)Cc1cccnc1)C(=O)N[C@@H](Cc1ccccc1)[C@@H](O)CN(Cc1ccccc1)NC(=O)[C@H](NC(=O)Cc1cccnc1)C(C)C | 500 |  | 
15 | CC(=O)N[C@H](C(=O)N[C@@H](Cc1ccccc1)[C@@H](O)CN(CC1CCCCC1)NC(=O)[C@@H](NC(C)=O)C(C)C)C(C)C | 9 | 1000 | IC50 [5]: 2000 nM; IC50 [6]: 7500 nM; IC50 [7]: 1000 nM; IC50 [8]: > 58000 nM
16 | CC(C)[C@H](NC(=O)OCc1ccccc1)C(=O)NN(Cc1ccccc1)C[C@H](O)[C@H](Cc1ccccc1)NC(=O)[C@H](NC(=O)OCc1ccccc1)C(C)C | > 100000 |  | inhibition [4]: 40%
17 | CC(C)[C@H](NC(=O)OC(C)(C)C)C(=O)N[C@@H](Cc1ccccc1)[C@@H](O)CN(Cc1ccccc1)NC(=O)[C@H](NC(=O)OC(C)(C)C)C(C)C | 52000 |  | 
18 | CC(C)[C@H](NC(=O)Cc1ccccc1)C(=O)N[C@@H](Cc1ccccc1)[C@@H](O)CN(Cc1ccccc1)NC(=O)[C@H](NC(=O)Cc1ccccc1)C(C)C | 360 |  | 
19 | CC(C)(C)OC(=O)N[C@@H](Cc1ccccc1)[C@@H](O)CN(Cc1ccccc1)NC(=O)OC(C)(C)C | ~50000 |  | 
